The results in this text go back to patent US20150197497A1, “SELECTIVE INHIBITORS OF HISTONE DEACETYLASE ISOFORM 6 AND METHODS THEREOF” (DANA-FARBER CANCER INSTITUTE, INC., priority 2011, published 2015).

For one experiment, the target named is T1, HDAC6 (Homo sapiens, UniProt Q9UBN7).
T1 construct: Recombinant, full-length HDAC protein (BPS Biosciences) was incubated with fluorophore conjugated substrate; purchased BPS Biosciences
T1 sequence (Q9UBN7 1-1215): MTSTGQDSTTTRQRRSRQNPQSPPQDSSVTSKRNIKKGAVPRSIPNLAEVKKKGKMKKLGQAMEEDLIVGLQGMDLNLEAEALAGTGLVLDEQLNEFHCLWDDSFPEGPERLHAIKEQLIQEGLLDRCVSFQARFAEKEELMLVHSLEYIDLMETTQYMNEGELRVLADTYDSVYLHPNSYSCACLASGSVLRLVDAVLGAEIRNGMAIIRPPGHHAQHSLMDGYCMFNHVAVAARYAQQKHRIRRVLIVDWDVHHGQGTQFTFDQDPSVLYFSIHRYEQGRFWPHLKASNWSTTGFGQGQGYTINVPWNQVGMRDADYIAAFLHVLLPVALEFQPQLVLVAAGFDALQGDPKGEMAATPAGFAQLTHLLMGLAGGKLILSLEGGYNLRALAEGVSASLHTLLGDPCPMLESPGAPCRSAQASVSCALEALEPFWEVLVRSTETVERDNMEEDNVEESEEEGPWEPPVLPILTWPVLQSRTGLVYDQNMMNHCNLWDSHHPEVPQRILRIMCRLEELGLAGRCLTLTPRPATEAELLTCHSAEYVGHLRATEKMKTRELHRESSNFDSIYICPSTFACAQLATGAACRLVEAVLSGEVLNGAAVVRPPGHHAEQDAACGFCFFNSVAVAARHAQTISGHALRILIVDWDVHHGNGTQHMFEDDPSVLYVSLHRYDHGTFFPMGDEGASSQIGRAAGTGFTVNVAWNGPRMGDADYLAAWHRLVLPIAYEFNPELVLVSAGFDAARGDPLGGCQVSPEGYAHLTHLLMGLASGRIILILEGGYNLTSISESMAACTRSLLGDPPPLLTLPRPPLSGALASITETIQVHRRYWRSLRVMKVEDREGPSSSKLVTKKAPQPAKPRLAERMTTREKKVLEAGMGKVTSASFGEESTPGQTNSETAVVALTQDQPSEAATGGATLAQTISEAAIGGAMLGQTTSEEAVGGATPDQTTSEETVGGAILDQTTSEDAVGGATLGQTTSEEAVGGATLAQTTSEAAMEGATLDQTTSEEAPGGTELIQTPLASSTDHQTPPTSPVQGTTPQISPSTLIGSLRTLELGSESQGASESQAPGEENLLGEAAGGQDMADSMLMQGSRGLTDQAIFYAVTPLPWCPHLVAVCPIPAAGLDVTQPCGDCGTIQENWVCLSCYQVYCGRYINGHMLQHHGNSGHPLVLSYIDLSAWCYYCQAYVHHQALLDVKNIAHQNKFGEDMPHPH
The experiment is described as follows: In vitro HDAC enzyme inhibition assay, HDAC6. Type of experiment: biochemical. The conditions noted are these: recombinant full-length HDAC6, substrate MAZ1600 9 μM. As for the experimental part:
In vitro Histone Deacetylase enzyme assays were performed using Class I (isoforms: HDAC1, HDAC2, HDAC3 and HDAC8), class IIa (isoforms: HDAC4, HDAC5, HDAC7 and HDAC9) and class IIb (isoform HDAC6).
HDAC activities were determined in vitro with an optimized homogenous assay performed in a 384-well plate. Recombinant, full-length HDAC protein (BPS Biosciences) was incubated with fluorophore conjugated substrate, MAZ1600 and MAZ1675, at Km=[S]. […] Reactions were performed in assay buffer (50 mM HEPES, 100 mM KCl, 0.001% Tween-20, 0.05% BSA, 200 μM tris(2-carboxyethyl)phosphine (TCEP), pH 7.4) and followed for fluorogenic release of 7-amino-4-methylcoumarin from substrate upon deacetylase and trypsin enzymatic activity. Fluorescence measurements were obtained every five minutes using a multilabel plate reader and plate-stacker (Envision; Perkin-Elmer). Each plate was analyzed by plate repeat, and the first derivative within the linear range was imported into analytical software (Spotfire DecisionSite and GraphPad Prism). Replicate experimental data from incubations with inhibitor were normalized to controls.

The test system of another experiment is acetylated tubulin. The experiment can be described thus: High-content image analysis of induction of acetylated tubulin in A549 cells.
The next experiment has as its system acetylated histones. The experiment can be described thus: High-content image analysis of induction of acetylated histones in A549 cells. The conditions noted are these: for EC50: Homo sapiens, A549, 8 h, read-out: EC50 for half-maximal induction of acetylated histones (AcHistone).

Experimental for acetylated tubulin: Cells were treated with each test HDACi compound with an automated pin transfer instrument (Janus, Perkin Elmer) and incubated for 8 hours. […] Fixation solution was aspirated and 90 μL of washing solution (0.1% Triton X-100 in PBS) was added prior to 10 minute incubation at 4° C. Washing solution was aspirated and cells were incubated at 4° C. for about 1 hour in blocking solution (0.1% Triton X-100+2% BSA in PBS). Washing solution was aspirated, and cells were incubated for about 1 hour at 4° C. in primary antibody for acetylated-tubulin (Sigma T7451) and acetylated-histone (Cell Signaling #9441L) at a 1:1000 dilution in blocking solution. Primary antibody solution was aspirated, and cells were washed three times in 90 μL of washing solution. […] Secondary antibody and nuclear staining solution was aspirated and cells were washed three times in 90 μL of washing solution. After the third wash, 50 μL of PBS was added to each well. Image acquisition was done on a high content imaging microscope (ImageXpress Micro, Molecular Devices), and image analysis (MetaXpress, Molecular Devices) was performed to obtain average acetylated-tubulin and acetylated-histone signal per cell based on treatment. Replicate experimental data from incubations with inhibitor were normalized to DMSO controls.

As to `Cc1ccc2c(c1)nnn2Cc1ccc(C(=O)NO)cc1` [C2, N-hydroxy-4-((5-methyl-1H-benzo[d][1,2,3]triazol-1-yl)methyl)benzamide], the IC50 on HDAC6 stood at 1470 nM. Also, the concentration giving a half-maximal response (EC50) in the experiment on acetylated tubulin (Homo sapiens, A549, 8 h, read-out: EC50 for half-maximal induction of acetylated tubulin (AcTubulin)) is 124 nM; in the experiment with acetylated histones, 2520 nM. The “AcHistone/AcTubulin in cell selectivity toward HDAC6” value in the experiment on acetylated tubulin (ratio of EC50 acetylated histone to EC50 acetylated tubulin, A549 cells) was 20.3.

For the molecule `O=C(CCCCCCC(=O)Nc1ccccc1)NO` [SAHA, suberoylanilide hydroxamic acid, reference compound], in the experiment with acetylated tubulin (A549 cells, FIG. 11), the “levels of acetylated tubulin, dose response (in words)” value is reported as “dose-dependent increase”. In addition, in the experiment on acetylated histones (A549 cells, FIG. 11), the “levels of acetylated histone, dose response (in words)” value is “dose-dependent increase”. The concentration giving a half-maximal response (EC50) with acetylated histones was determined as 143 nM.

The IC50 is the concentration needed to halve the response being measured. As usually defined, the EC50 is the midpoint of the concentration-response curve.
